Laboratory results from patent publication US12103920B2, “Cereblon binding compounds, compositions thereof, and methods of treatment therewith” (Celgene Corporation, priority 2020, dated 2024).
Structures can show the parent of a compound that is named as a salt.

Biological target: T1, AR protein in VCaP cells (Homo sapiens, UniProt P10275)
T1 construct: endogenous in cells; host or cells: VCaP cells
T1 sequence (P10275 1-920): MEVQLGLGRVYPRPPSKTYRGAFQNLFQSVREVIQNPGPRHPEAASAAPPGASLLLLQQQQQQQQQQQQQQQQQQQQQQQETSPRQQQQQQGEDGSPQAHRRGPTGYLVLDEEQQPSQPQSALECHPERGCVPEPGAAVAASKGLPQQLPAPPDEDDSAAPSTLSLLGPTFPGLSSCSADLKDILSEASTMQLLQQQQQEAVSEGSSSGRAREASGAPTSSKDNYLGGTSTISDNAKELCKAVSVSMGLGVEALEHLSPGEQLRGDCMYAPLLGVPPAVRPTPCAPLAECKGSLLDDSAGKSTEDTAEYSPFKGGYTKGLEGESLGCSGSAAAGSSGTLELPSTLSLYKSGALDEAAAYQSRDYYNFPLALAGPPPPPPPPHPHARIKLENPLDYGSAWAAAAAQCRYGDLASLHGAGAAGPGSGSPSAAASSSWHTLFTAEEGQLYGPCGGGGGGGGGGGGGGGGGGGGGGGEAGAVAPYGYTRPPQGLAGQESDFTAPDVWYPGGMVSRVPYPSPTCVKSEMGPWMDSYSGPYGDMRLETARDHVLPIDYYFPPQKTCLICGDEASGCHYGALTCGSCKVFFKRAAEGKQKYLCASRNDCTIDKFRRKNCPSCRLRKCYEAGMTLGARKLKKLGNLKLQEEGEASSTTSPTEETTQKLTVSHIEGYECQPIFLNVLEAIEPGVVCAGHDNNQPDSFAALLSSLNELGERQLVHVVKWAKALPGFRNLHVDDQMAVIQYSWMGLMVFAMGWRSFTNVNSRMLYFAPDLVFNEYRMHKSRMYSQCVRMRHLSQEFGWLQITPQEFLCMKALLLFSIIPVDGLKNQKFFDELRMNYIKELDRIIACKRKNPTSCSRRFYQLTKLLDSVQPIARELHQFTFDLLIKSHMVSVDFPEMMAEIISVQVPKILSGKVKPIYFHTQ
Assay: VCAP AR Degradation Assay
Type: cell-based
Conditions: 24 h, AR ELISA; for DC50: concentration at 50% of DMSO control (50% AR degradation); for Y: lowest measured AR level normalized to DMSO control
Method in brief: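 VCaP cells in DMEM with 8% FBS were treated 24 h at 37° C with a 10-point 1:3 series (top final 5 μM; 0.1% DMSO control). AR in lysates was measured by sandwich ELISA, normalized to DMSO as percent of control; DC50, EC50 and Ymin came from a four-parameter logistic fit.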

| Structure (SMILES) | DC50 [nM] | Y |
| --- | --- | --- |
| C[C@@H]1CN(CCC[C@H]2CC[C@H](N3C(=S)N(c4ccc(C#N)c(C(F)(F)F)c4)C(=O)C3(C)C)CC2)C[C@H](C)N1CC(=O)Nc1cc(NC2CCC(=O)NC2=O)ccc1F (stereo partly drawn) [Cmpd 39, 2-((2R,6S)-4-(3-((trans)-4-(3-(4-Cyano-3-(trifluoromethyl)phenyl)-5,5-dimethyl-4-oxo-2-thioxoimidazolidin-1-yl)cyclohexyl)propyl)-2,6-dimethylpiperazin-1-yl)-N-(5-((2,6-dioxopiperidin-3-yl)amino)-2-fluorophenyl)acetamide] | 10 to 100 | *** (25%<Y<50%) |
| CC1(C)C(=O)N(c2ccc(C#N)c(C(F)(F)F)c2)C(=S)N1[C@H]1CC[C@H](OCCN2CCN(CC(=O)Nc3cccc(NC4CCC(=O)NC4=O)c3)[C@H](C(F)(F)F)C2)CC1 (stereo partly drawn) [Cmpd 40, 2-((S)-4-(2-(((trans)-4-(3-(4-Cyano-3-(trifluoromethyl)phenyl)-5,5-dimethyl-4-oxo-2-thioxoimidazolidin-1-yl)cyclohexyl)oxy)ethyl)-2-(trifluoromethyl)piperazin-1-yl)-N-(3-((2,6-dioxopiperidin-3-yl)amino)phenyl)acetamide] | 10 to 100 | *** (25%<Y<50%) |
| C[C@@H]1C[C@H](OCCO[C@H]2CC[C@H](N3C(=S)N(c4ccc(C#N)c(C(F)(F)F)c4)C(=O)C3(C)C)CC2)C[C@H](C)N1CC(=O)Nc1cccc(NC2CCC(=O)NC2=O)c1 (stereo partly drawn) [Cmpd 43, 2-((2R,4r,6S)-4-(2-(((trans)-4-(3-(4-Cyano-3-(trifluoromethyl)phenyl)-5,5-dimethyl-4-oxo-2-thioxoimidazolidin-1-yl)cyclohexyl)oxy)ethoxy)-2,6-dimethylpiperidin-1-yl)-N-(3-((2,6-dioxopiperidin-3-yl)amino)phenyl)acetamide] | 5 to 10 | *** (25%<Y<50%) |
| CC1(C)C(=O)N(c2ccc(C#N)c(C(F)(F)F)c2)C(=S)N1[C@H]1CC[C@H](OCCC2CCN(CC(=O)Nc3cccc(NC4CCC(=O)NC4=O)c3)CC2(F)F)CC1 (stereo partly drawn) [Cmpd 44, 2-(4-(2-(((trans)-4-(3-(4-Cyano-3-(trifluoromethyl)phenyl)-5,5-dimethyl-4-oxo-2-thioxoimidazolidin-1-yl)cyclohexyl)oxy)ethyl)-3,3-difluoropiperidin-1-yl)-N-(3-((2,6-dioxopiperidin-3-yl)amino)phenyl)acetamide] | 5 to 10 | * (0<Y≤15%) |

Continued, values first:

| DC50 [nM] | Y | Structure (SMILES) |
| --- | --- | --- |
| ≤ 5 | * (0<Y≤15%) | CC1(C)C(=O)N(c2cnc(C#N)c(C(F)(F)F)c2)C(=S)N1[C@H]1CC[C@H](OCCN2CCN(CC(=O)Nc3cccc(N[C@H]4CCC(=O)NC4=O)c3)[C@@H](C(F)(F)F)C2)CC1 [Cmpd 41, 2-((R)-4-(2-(((trans)-4-(3-(6-Cyano-5-(trifluoromethyl)pyridin-3-yl)-5,5-dimethyl-4-oxo-2-thioxoimidazolidin-1-yl)cyclohexyl)oxy)ethyl)-2-(trifluoromethyl)piperazin-1-yl)-N-(3-(((S)-2,6-dioxopiperidin-3-yl)amino)phenyl)acetamide hydrochloride] |
| ≤ 5 | * (0<Y≤15%) | CC1(C)C(=O)N(c2cnc(C#N)c(C(F)(F)F)c2)C(=S)N1[C@H]1CC[C@H](OCCN2CCN(CC(=O)Nc3cccc(N[C@@H]4CCC(=O)NC4=O)c3)[C@@H](C(F)(F)F)C2)CC1 [Cmpd 42, 2-((R)-4-(2-(((trans)-4-(3-(6-Cyano-5-(trifluoromethyl)pyridin-3-yl)-5,5-dimethyl-4-oxo-2-thioxoimidazolidin-1-yl)cyclohexyl)oxy)ethyl)-2-(trifluoromethyl)piperazin-1-yl)-N-(3-(((R)-2,6-dioxopiperidin-3-yl)amino)phenyl)acetamide hydrochloride] |
| ≤ 5 | ** (15%<Y≤20%) | C[C@@H]1C[C@H](OCCO[C@H]2CC[C@H](N3C(=S)N(c4cnc(C#N)c(C(F)(F)F)c4)C(=O)C3(C)C)CC2)C[C@H](C)N1CC(=O)Nc1cccc(NC2CCC(=O)NC2=O)c1 (stereo partly drawn) [Cmpd 45, 2-((2R,4r,6S)-4-(2-(((trans)-4-(3-(6-Cyano-5-(trifluoromethyl)pyridin-3-yl)-5,5-dimethyl-4-oxo-2-thioxoimidazolidin-1-yl)cyclohexyl)oxy)ethoxy)-2,6-dimethylpiperidin-1-yl)-N-(3-((2,6-dioxopiperidin-3-yl)amino)phenyl)acetamide] |
| ≤ 5 | * (0<Y≤15%) | CC1(C)C(=O)N(c2cnc(C#N)c(C(F)(F)F)c2)C(=S)N1[C@H]1CC[C@H](OCCC2CCN(CC(=O)Nc3cccc(NC4CCC(=O)NC4=O)c3)CC2(F)F)CC1 (stereo partly drawn) [Cmpd 46, 2-(4-(2-(((trans)-4-(3-(6-Cyano-5-(trifluoromethyl)pyridin-3-yl)-5,5-dimethyl-4-oxo-2-thioxoimidazolidin-1-yl)cyclohexyl)oxy)ethyl)-3,3-difluoropiperidin-1-yl)-N-(3-((2,6-dioxopiperidin-3-yl)amino)phenyl)acetamide hydrochloride] |
| < 1000 | * (0<Y≤15%) | C[C@@H]1CN(CCO[C@H]2CC[C@H](N3C(=S)N(c4cnc(C#N)c(C(F)(F)F)c4)C(=O)C3(C)C)CC2)C[C@H](C)N1CC(=O)Nc1cccc(N[C@H]2CCC(=O)NC2=O)c1 [Cmpd 47, 2-((2R,6S)-4-(2-(((trans)-4-(3-(6-Cyano-5-(trifluoromethyl)pyridin-3-yl)-5,5-dimethyl-4-oxo-2-thioxoimidazolidin-1-yl)cyclohexyl)oxy)ethyl)-2,6-dimethylpiperazin-1-yl)-N-(3-(((S)-2,6-dioxopiperidin-3-yl)amino)phenyl)acetamide] |
| < 1000 | * (0<Y≤15%) | C[C@@H]1CN(CCO[C@H]2CC[C@H](N3C(=S)N(c4cnc(C#N)c(C(F)(F)F)c4)C(=O)C3(C)C)CC2)C[C@H](C)N1CC(=O)Nc1cccc(N[C@@H]2CCC(=O)NC2=O)c1 [Cmpd 48, 2-((2R,6S)-4-(2-(((trans)-4-(3-(6-Cyano-5-(trifluoromethyl)pyridin-3-yl)-5,5-dimethyl-4-oxo-2-thioxoimidazolidin-1-yl)cyclohexyl)oxy)ethyl)-2,6-dimethylpiperazin-1-yl)-N-(3-(((R)-2,6-dioxopiperidin-3-yl)amino)phenyl)acetamide] |
